Test results published in PubChem BioAssay AID1963867 (Molecular Pharmacology Branch, DTP, NCI, 2024).

System: KRAS-mutant PDC tumor spheroid with HUVEC/MSC, viability
Test: Anticancer human tumor 327498-153-R-J2-PDC patient-derived uterine carcinosarcoma cell line growth inhibition [KRAS2]
Conditions: for IC50: curve of first compound; for viability, T/C: stronger effect = lower value
In short: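 Combination screen of spheroid viability in tumor-cell co-cultures with endothelial (HUVEC) and mesenchymal stem cell stroma. Each agent was tested in half-log dilutions, topping at clinical Cmax or at 10 microM without a known Cmax.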

[1] = second compound 0.0316 µM, first compound 0.000316 µM
[2] = second compound 0.0316 µM, first compound 0.001 µM
[3] = second compound 0.0316 µM, first compound 0.00316 µM
[4] = second compound 0.0316 µM, first compound 0.01 µM
[5] = second compound 0.0316 µM, first compound 0.0316 µM
[6] = second compound 0.1 µM, first compound 0.000316 µM
[7] = second compound 0.1 µM, first compound 0.001 µM
[8] = second compound 0.1 µM, first compound 0.00316 µM
[9] = second compound 0.1 µM, first compound 0.01 µM
[10] = second compound 0.1 µM, first compound 0.0316 µM
[11] = second compound 0.1 µM, first compound 0.1 µM
[12] = second compound 0.316 µM, first compound 0.000316 µM
[13] = second compound 0.316 µM, first compound 0.001 µM
[14] = second compound 0.316 µM, first compound 0.00316 µM
[15] = second compound 0.316 µM, first compound 0.01 µM
[16] = second compound 0.316 µM, first compound 0.0316 µM
[17] = second compound 0.316 µM, first compound 0.1 µM
[18] = second compound 1 µM, first compound 0.000316 µM
[19] = second compound 1 µM, first compound 0.001 µM
[20] = second compound 1 µM, first compound 0.00316 µM
[21] = second compound 1 µM, first compound 0.01 µM
[22] = second compound 1 µM, first compound 0.0316 µM
[23] = second compound 1 µM, first compound 0.1 µM
[24] = second compound 3.16 µM, first compound 0.000316 µM
[25] = second compound 3.16 µM, first compound 0.001 µM
[26] = second compound 3.16 µM, first compound 0.00316 µM
[27] = second compound 3.16 µM, first compound 0.01 µM
[28] = second compound 3.16 µM, first compound 0.0316 µM
[29] = second compound 3.16 µM, first compound 0.1 µM
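Further: spheroids exposed to agents for seven days before reading.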
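Wherever viability, T/C is given: 100% = DMSO vehicle wells so lower means fewer viable cells.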

Compound | IC50 (second compound 0.0316 µM) [nM] | IC50 (second compound 0.1 µM) [nM] | IC50 (second compound 0.316 µM) [nM] | IC50 (second compound 1 µM) [nM] | IC50 (second compound 3.16 µM) [nM] | viability, T/C [1] [%] | viability, T/C [2] [%] | viability, T/C [3] [%] | viability, T/C [8] [%] | viability, T/C [9] [%] | viability, T/C [10] [%] | viability, T/C [14] [%] | viability, T/C [15] [%] | viability, T/C [16] [%] | viability, T/C [20] [%] | viability, T/C [21] [%] | viability, T/C [22] [%] | viability, T/C [26] [%] | viability, T/C [27] [%] | viability, T/C [28] [%] | also measured
CC(C)n1nc(-c2ccc3oc(N)nc3c2)c2c(N)ncnc21 + C=CC(=O)N1CCN(c2nc(OCC3CCCN3C)nc3c2CCN(c2cccc4cccc(C)c24)C3)CC1CC#N | 1.03 | 0.342 | 0.586 | < 0.316 | < 0.316 | 62.7 | 49.2 | 35.1 | 28.4 | 17.2 | 8.1 | 28.8 | 15.8 | 9.55 | 22.6 | 13.2 | 4.83 | 0.22 | 0.14 | 0.14 | viability, T/C [4]: 17.8%; viability, T/C [5]: 8.35%; viability, T/C (second compound 0.0316 µM, first compound 0.1 µM): 5.42%; viability, T/C [6]: 51.6%; viability, T/C [7]: 35.8%; viability, T/C [11]: 4.85%; viability, T/C [12]: 57.3%; viability, T/C [13]: 43.7%; viability, T/C [17]: 4.33%; viability, T/C [18]: 46.5%; viability, T/C [19]: 33%; viability, T/C [23]: 3.23%; viability, T/C [24]: 0.28%; viability, T/C [25]: 0.25%; viability, T/C [29]: 0.21%
CC(=O)Nc1cccc(-n2c(=O)n(C3CC3)c(=O)c3c(Nc4ccc(I)cc4F)n(C)c(=O)c(C)c32)c1 + C=CC(=O)N1CCN(c2nc(OCC3CCCN3C)nc3c2CCN(c2cccc4cccc(C)c24)C3)CC1CC#N | 6.53 | 5.43 | 3.49 | 0.128 | < 0.1 | 64.8 | 57.4 | 58 | 53 | 47.8 | 25.4 | 48 | 44.7 | 25.5 | 41.9 | 35.8 | 22.1 | 0.22 | 0.18 | 0.31 | viability, T/C (second compound 0.0316 µM, first compound 0.0001 µM): 72.7%; viability, T/C [4]: 49.1%; viability, T/C [5]: 31.4%; viability, T/C (second compound 0.1 µM, first compound 0.0001 µM): 67.1%; viability, T/C [6]: 68.3%; viability, T/C [7]: 58.4%; viability, T/C (second compound 0.316 µM, first compound 0.0001 µM): 58.5%; viability, T/C [12]: 54.6%; viability, T/C [13]: 55.7%; viability, T/C (second compound 1 µM, first compound 0.0001 µM): 48.5%; viability, T/C [18]: 52.4%; viability, T/C [19]: 45.7%; viability, T/C (second compound 3.16 µM, first compound 0.0001 µM): 0.75%; viability, T/C [24]: 0.19%; viability, T/C [25]: 0.19%
CCN1CCN(Cc2ccc(Nc3ncc(F)c(-c4cc(F)c5nc(C)n(C(C)C)c5c4)n3)nc2)CC1 + CC1OCC2(CCN(c3cnc(Sc4ccnc(N)c4Cl)c(N)n3)CC2)C1N |  | 8.23 | < 3.16 | < 3.16 | < 3.16 |  |  |  | 61.5 | 49 | 36.7 | 42.5 | 31.6 | 26.9 | 34.2 | 23.7 | 24.5 | 20 | 16.6 | 16.2 | IC50 (second compound 10 µM): < 3.16 nM; viability, T/C [11]: 37.9%; viability, T/C (second compound 0.1 µM, first compound 0.316 µM): 44.6%; viability, T/C (second compound 0.1 µM, first compound 1 µM): 45.5%; viability, T/C [17]: 29.2%; viability, T/C (second compound 0.316 µM, first compound 0.316 µM): 26.6%; viability, T/C (second compound 0.316 µM, first compound 1 µM): 33.5%; viability, T/C [23]: 21.3%; viability, T/C (second compound 1 µM, first compound 0.316 µM): 22%; viability, T/C (second compound 1 µM, first compound 1 µM): 26.5%; viability, T/C [29]: 16.7%; viability, T/C (second compound 3.16 µM, first compound 0.316 µM): 18.5%; viability, T/C (second compound 3.16 µM, first compound 1 µM): 22.1%; viability, T/C (second compound 10 µM, first compound 0.00316 µM): 19%; viability, T/C (second compound 10 µM, first compound 0.01 µM): 16.2%; viability, T/C (second compound 10 µM, first compound 0.0316 µM): 17.8%; viability, T/C (second compound 10 µM, first compound 0.1 µM): 16.9%; viability, T/C (second compound 10 µM, first compound 0.316 µM): 20.8%; viability, T/C (second compound 10 µM, first compound 1 µM): 22%
